Assay results reported in patent US5200409A, “Composition and use of substituted 1,3-dithiolo-and 1,4-dithiinoquinoxalines as an antimicrobial” (The Dow Chemical Company, priority 1992, dated 1993).
Values after ≈ are worked out from the molar mass of the structure shown. Like-named read-outs stand apart in the source and are kept apart here.

Assays:
[1] = system: Aureobasidium pullulan (Ap); test: Minimum inhibitory concentration (MIC) in malt yeast agar; type: cell-based, Aureobasidium pullulan ATCC 16622; settings: read-out: Minimum Inhibitory Concentration, Ap
Protocol: (§1) The minimum inhibitory concentration (MIC) for the compounds listed in Table I is determined for 9 bacteria, using nutrient agar: and 7 yeast and fungi, using malt yeast agar. A one percent solution of the test compound is prepared in a mixture of acetone and water. Nutrient agar is prepared at pH 6.8, representing a neutral medium, and at pH 8.2, representing an alkaline medium. The nutrient agars are prepared by adding 23 g of nutrient agar to one-liter of deionized water. In addition, the alkaline medium is prepared by adjusting a 0.04M solution of N-[tris-(hydroxymethyl)methyl]-glycine buffered deionized water with concentrated sodium hydroxide to a pH of […]. Malt yeast agar is prepared by adding 3 g yeast extract and 45 g malt agar per liter of deionized water. The specific agar is dispensed in 30 ml aliquots into 25×200 mm test tubes, capped and autoclaved for 15 minutes at 115° C. The test tubes containing the agar are cooled in a water bath until the temperature of the agar is 48° C. Then, an appropriate amount of the one percent solution of the test compound is added (except in the controls where no compound is added) to the respective test tubes so that the final concentrations are 500, 250, 100, 50, 25, 10, 5, 2.5, 1.0 and zero parts per million of the test compound in the agar, thus having a known concentration of test compound dispersed therein. The contents of the test tubes are then transferred to respective petri plates. After drying for 24 hours, the petri plates containing nutrient agar are inoculated with bacteria and those containing malt yeast agar are inoculated with yeast and fungi.
(§2) The inoculation with the yeast and fungi is accomplished as follows. Cultures of yeast and fungi are incubated for seven days on malt yeast agar at 30° C. These cultures are used to prepare suspensions by the following procedure. A suspension of each organism is prepared by adding 10 ml of sterile saline and 10 microliters of octylphenoxy polyethoxy ethanol to the agar slant of yeast or fungi. The sterile saline/octylphenoxy polyethoxy ethanol solution is then agitated with a sterile swab to suspend the microorganism grown on the slant. Each resulting suspension is diluted into sterile saline (1 part suspension: 9 parts sterile saline). Aliquots of these dilutions are placed in individual wells of Steer's Replicator and petri plates inoculated as previously described. The petri plates are incubated at 30° C. and read after 48 hours for yeast and 72 hours for fungi.
(§3) Table II lists the bacteria, yeast and fungi used in the MIC test described above along with their respective American Type Culture Collection (ATCC) identification numbers.

[2] = system: Penicillium chrysogenum (Pc); test: as above; type: cell-based, Penicillium chrysogenum ATCC 9480; settings: malt yeast agar; 30° C.; 72 hours for fungi; read-out: Minimum Inhibitory Concentration, Pc
Protocol: as §1, §2, §3

[3] = system: Saccharomyces cerevisiae (Sc); test: as above; type: cell-based, Saccharomyces cerevisiae ATCC 4105; settings: malt yeast agar, 30° C., 48 hours for yeast, read-out: Minimum Inhibitory Concentration, Sc
Protocol: as §1, §2, §3

Bacillus subtilis (Bs) = test: Minimum inhibitory concentration (MIC) in nutrient agar; type: cell-based, Bacillus subtilis ATCC 8473
Protocol: as §1
(§4) The inoculation with bacteria is accomplished by using the following procedure. Twenty-four hour-cultures of each of the bacteria are prepared by incubating the respective bacteria in tubes containing nutrient broth for 24 hours at 30° C. in a shaker. Dilutions of each of the 24 hour-cultures are made so that nine separate suspensions (one for each of the nine test bacteria) are made, each containing 10^8 colony forming units (CFU) per ml of suspension of a particular bacteria. Aliquots of 0.3 ml of each of the bacterial suspensions are used to fill the individual wells of Steer's Replicator. For each microbial suspension, 0.3 ml was used to fill three wells (i.e., three wells of 0.3 ml each) so that for the nine different bacteria, 27 wells are filled. The Steer's Replicator is then used to inoculate both the neutral and alkaline pH nutrient agar petri plates.
(§5) The inoculated petri plates are incubated at 30° C. for 48 hours and then read to determine if the test compound which is incorporated into the agar prevented growth of the respective bacteria.
as §3

[4] = system: Staphylococcus aureus (Sa); test: as above; type: cell-based, Staphylococcus aureus ATCC 6538
Protocol: as §1, §4, §5, §3

Trichoderma viride (Tv) = test: Minimum inhibitory concentration (MIC) in malt yeast agar; type: cell-based, Trichoderma viride ATCC 8678; settings: malt yeast agar; 30° C.; 72 hours for fungi; read-out: Minimum Inhibitory Concentration, Tv
Protocol: as §1, §2, §3

Proteus vulgaris (Pv) = test: Minimum inhibitory concentration (MIC) in nutrient agar; type: cell-based, Proteus vulgaris ATCC 881
Protocol: as §1, §4, §5, §3

[5] = system: Pseudomonas aeruginosa (Pa); test: as above; type: cell-based, Pseudomonas aeruginosa ATCC 10145; settings: 48 hours
Protocol: as §1, §4, §5, §3

[6] = system: Enterobacter aerogenes (Ea); test: as above; type: cell-based, Enterobacter aerogenes ATCC 13048; settings: Klebsiella aerogenes
Protocol: as §1, §4, §5, §3

Candida albicans (Ca) = test: Minimum inhibitory concentration (MIC) in malt yeast agar; type: cell-based, Candida albicans ATCC 10231; settings: malt yeast agar; 30° C.; 48 hours for yeast; read-out: Minimum Inhibitory Concentration, Ca
Protocol: as §1, §2, §3

[7] = system: Salmonella choleraesuis (Sc); test: Minimum inhibitory concentration (MIC) in nutrient agar; type: cell-based, Salmonella choleraesuis ATCC 10708; settings: Salmonella enterica
Protocol: as §1, §4, §5, §3

Escherichia coli (Ec) = test: as above; type: cell-based, Escherichia coli ATCC 11229; settings: 48 h
Protocol: as §1, §4, §5, §3

[8] = system: Pseudomonas aeruginosa (PRD-10); test: as above; type: cell-based, Pseudomonas aeruginosa ATCC 15442
Protocol: as §1, §4, §5, §3

[9] = system: Klebsiella pneumoniae (Kp); test: as above; type: cell-based, Klebsiella pneumoniae ATCC 8308
Protocol: as §1, §4, §5, §3

Fusarium oxysporum (Fo) = test: Minimum inhibitory concentration (MIC) in malt yeast agar; type: cell-based, Fusarium oxysporum ATCC 48112; settings: malt yeast agar; 30° C.; 72 hours for fungi; read-out: Minimum Inhibitory Concentration, Fo
Protocol: as §1, §2, §3

Aspergillus niger (An) = test: as above; type: cell-based, Aspergillus niger ATCC 16404; settings: malt yeast agar; 30° C.; 72 hours for fungi; read-out: Minimum Inhibitory Concentration, An
Protocol: as §1, §2, §3

[10] = pH 6.8, nutrient agar, 30° C., 48 hours, read-out: Minimum Inhibitory Concentration, Sa
[11] = 48 h, pH 8.2, read-out: Minimum Inhibitory Concentration, Pv
[12] = 48 h, pH 8.2, read-out: Minimum Inhibitory Concentration, Ea
[13] = 48 h, pH 8.2, read-out: Minimum Inhibitory Concentration, Sc
[14] = pH 6.8, read-out: Minimum Inhibitory Concentration, Ec
[15] = pH 8.2, read-out: Minimum Inhibitory Concentration, Ec
[16] = 48 h, pH 8.2, read-out: Minimum Inhibitory Concentration, PRD
[17] = 48 h, pH 8.2, read-out: Minimum Inhibitory Concentration, Kp

Row | SMILES | MIC [2] [µg/mL] | MIC [3] [µg/mL] | MIC [4, 10] [µg/mL] | MIC (Trichoderma viride (Tv)) [µg/mL] | MIC (Proteus vulgaris (Pv); [11]) [µg/mL] | MIC ([5]; pH 8.2, 30° C.) [µg/mL] | MIC [6, 12] [µg/mL] | MIC (Candida albicans (Ca)) [µg/mL] | MIC [7, 13] [µg/mL] | MIC (Escherichia coli (Ec); [14]) [µg/mL] | MIC (Escherichia coli (Ec); [15]) [µg/mL] | MIC [8, 16] [µg/mL] | MIC [9, 17] [µg/mL] | MIC (Fusarium oxysporum (Fo)) [µg/mL] | MIC (Aspergillus niger (An)) [µg/mL] | other results
1 | N#CC(C#N)=C1Sc2nc3cc(Cl)c([N+](=O)[O-])cc3nc2S1 [Q, 6-chloro-7-nitro-1,3-dithiolo-(4,5-b)-quinoxaline-2-ylidene-propanedinitrile] | 500 (≈ 1440 µM) | 500 (≈ 1440 µM) | > 500 | > 500 | > 500 | > 500 | > 500 | 500 (≈ 1440 µM) | > 500 | > 500 | > 500 | > 500 | > 500 | > 500 | 500 (≈ 1440 µM) | MIC [1]: 50 µg/mL (≈ 144 µM); MIC (Bacillus subtilis (Bs); 48 h, pH 6.8, read-out: Minimum Inhibitory Concentration, Bs): > 500 µg/mL; MIC (Bacillus subtilis (Bs); 48 h, pH 8.2, read-out: Minimum Inhibitory Concentration, Bs): > 500 µg/mL; MIC ([4]; 48 h, pH 8.2, read-out: Minimum Inhibitory Concentration, Sa): > 500 µg/mL; MIC (Proteus vulgaris (Pv); 48 h, pH 6.8, read-out: Minimum Inhibitory Concentration, Pv): > 500 µg/mL; MIC ([5]; pH 6.8, 30° C.): > 500 µg/mL; MIC ([6]; 48 h, pH 6.8, read-out: Minimum Inhibitory Concentration, Ea): > 500 µg/mL; MIC ([7]; 48 h, pH 6.8, read-out: Minimum Inhibitory Concentration, Sc): > 500 µg/mL; MIC ([8]; 48 h, pH 6.8, read-out: Minimum Inhibitory Concentration, PRD): > 500 µg/mL; MIC ([9]; pH 6.8, nutrient agar, 30° C., 48 hours, read-out: Minimum Inhibitory Concentration, Kp): > 500 µg/mL
2 | N#CC1=C(C#N)Sc2nc3cc(C(F)(F)F)ccc3nc2S1 [K, 7-trifluoromethyl-1,4-dithiino-(2,3-b)-quinoxaline-2,3-dicarbonitrile] | 25 (≈ 74.3 µM) | < 10 | 25 (≈ 74.3 µM) | 25 (≈ 74.3 µM) | > 500 | > 500 | > 500 | < 10 | > 500 | 50 (≈ 149 µM) | > 500 | > 500 | > 500 | 25 (≈ 74.3 µM) | 25 (≈ 74.3 µM) | MIC ([1]; malt yeast agar, 30° C., 48 hours for yeast and 72 hours for fungi): < 10 µg/mL; MIC (Bacillus subtilis (Bs); pH 6.8, nutrient agar, 30° C., 48 hours, read-out: Minimum Inhibitory Concentration, Bs): < 10 µg/mL; MIC (Bacillus subtilis (Bs); pH 8.2, nutrient agar, 30° C., 48 hours, read-out: Minimum Inhibitory Concentration, Bs): 100 µg/mL (≈ 297 µM); MIC ([4]; pH 8.2, nutrient agar, 30° C., 48 hours, read-out: Minimum Inhibitory Concentration, Sa): 100 µg/mL (≈ 297 µM); MIC (Proteus vulgaris (Pv); pH 6.8, nutrient agar, 30° C., 48 hours, read-out: Minimum Inhibitory Concentration, Pv): 50 µg/mL (≈ 149 µM); MIC ([6]; pH 6.8, nutrient agar, 30° C., 48 hours, read-out: Minimum Inhibitory Concentration, Ea): 250 µg/mL (≈ 743 µM); MIC ([7]; pH 6.8, nutrient agar, 30° C., 48 hours, read-out: Minimum Inhibitory Concentration, Sc): 50 µg/mL (≈ 149 µM); MIC ([8]; pH 6.8, nutrient agar, 30° C., 48 hours, read-out: Minimum Inhibitory Concentration, PRD): 250 µg/mL (≈ 743 µM); MIC ([9]; 48 h, pH 6.8, read-out: Minimum Inhibitory Concentration, Kp): 50 µg/mL (≈ 149 µM)
